Source: the CheMixHub ionic liquid set
± gives the uncertainty stated by the source.

Assay: xn = mol fraction of the nth substance listed

In the case of `CCCC[n+]1ccn(C)c1.F[P-](F)(F)(F)(F)F` + CCCC[n+]1ccn(C)c1.O=S(=O)([O-])C(F)(F)F, the viscosity (318.15 K, 100 kPa, x1 = 1) is reported as 87.7 ± 2.4 mPa·s.

`CCOC(C)=O` + CCCC[n+]1ccn(C)c1.O=S(=O)([O-])C(F)(F)F gave a viscosity (298.15 K, 100 kPa, x2 = 0) of 0.42 ± 0.08 mPa·s.

In the case of `CCCCCCO` + CCCC[n+]1ccn(C)c1.O=[N+]([O-])[O-], the viscosity (293.15 K, 100 kPa, x2 = 0) is reported as 5.37 ± 0.43 mPa·s, the viscosity (303.15 K, 100 kPa, x2 = 0) is reported as 3.94 ± 0.32 mPa·s and the viscosity (313.15 K, 100 kPa, x2 = 0) is reported as 2.95 ± 0.24 mPa·s. The viscosity (323.15 K, 100 kPa, x2 = 0) was 2.26 ± 0.18 mPa·s.

`CC#N` + CCCC[n+]1ccn(C)c1.[Cl-] showed a viscosity (308.15 K, 101 kPa, x1 = 1) of 0.31 mPa·s.

For `CN(C)C=O` + CCCC[n+]1ccn(C)c1.[Cl-], the viscosity (288.15 K, 101 kPa, x1 = 1) was 0.94 ± 0.11 mPa·s.

In the case of `CCCC[n+]1ccn(C)c1.O=S(=O)([N-]S(=O)(=O)C(F)(F)F)C(F)(F)F` + CCCO, the electrical conductivity (298 K, 100 kPa, x1 = 0.02) is reported as 0.137 ± 0.0014 S/m, the viscosity (298 K, 100 kPa, x1 = 0.05) is reported as 2.742 ± 0.016 mPa·s and the electrical conductivity (298 K, 100 kPa, x1 = 0.06) is reported as 0.348 ± 0.0035 S/m. It also gave an electrical conductivity (298 K, 100 kPa, x1 = 0.07) of 0.3949 ± 0.0039 S/m, an electrical conductivity (298 K, 100 kPa, x1 = 0.1) of 0.5104 ± 0.0051 S/m and a viscosity (298 K, 100 kPa, x1 = 0.1) of 3.685 ± 0.024 mPa·s. For the same compound, the viscosity (298 K, 100 kPa, x1 = 0.1996) was 5.689 ± 0.047 mPa·s, the electrical conductivity (298 K, 100 kPa, x1 = 0.2) was 0.7444 ± 0.0074 S/m and the electrical conductivity (298 K, 100 kPa, x1 = 0.3) was 0.8144 ± 0.0081 S/m. For the same compound, the viscosity (298 K, 100 kPa, x1 = 0.3005) was 8.179 ± 0.084 mPa·s, the viscosity (298 K, 100 kPa, x1 = 0.3996) was 11.32 ± 0.14 mPa·s and the electrical conductivity (298 K, 100 kPa, x1 = 0.4) was 0.804 ± 0.08 S/m. The viscosity (298 K, 100 kPa, x1 = 0.4995) was 15.01 ± 0.22 mPa·s, the electrical conductivity (298 K, 100 kPa, x1 = 0.5) was 0.7509 ± 0.0075 S/m and the viscosity (298 K, 100 kPa, x1 = 0.5478) was 17.08 ± 0.27 mPa·s. For the same compound, the electrical conductivity (298 K, 100 kPa, x1 = 0.6) was 0.686 ± 0.0069 S/m, the viscosity (298 K, 100 kPa, x1 = 0.6957) was 24.54 ± 0.47 mPa·s and the electrical conductivity (298 K, 100 kPa, x1 = 0.7) was 0.6239 ± 0.0062 S/m. It also gave an electrical conductivity (298 K, 100 kPa, x1 = 0.8) of 0.5324 ± 0.0053 S/m, a viscosity (298 K, 100 kPa, x1 = 0.8024) of 32.15 ± 0.69 mPa·s and an electrical conductivity (298 K, 100 kPa, x1 = 0.9) of 0.461 ± 0.046 S/m. It also gave a viscosity (298 K, 100 kPa, x1 = 0.9018) of 40.15 ± 0.95 mPa·s and a viscosity (298 K, 100 kPa, x1 = 1) of 49.7 ± 1.3 mPa·s.

Work on `CC#N` + CCC[N+]1(C)CCCC1.O=S(=O)([N-]S(=O)(=O)C(F)(F)F)C(F)(F)F yielded a viscosity (278.15 K, 101 kPa, x2 = 0) of 0.411 ± 0.017 mPa·s, a viscosity (288.15 K, 101 kPa, x2 = 0) of 0.38 ± 0.016 mPa·s and a viscosity (298.15 K, 101 kPa, x2 = 0) of 0.346 ± 0.015 mPa·s. The viscosity (308.15 K, 101 kPa, x2 = 0) was 0.311 ± 0.013 mPa·s, the viscosity (318.15 K, 101 kPa, x2 = 0) was 0.279 ± 0.012 mPa·s and the viscosity (328.15 K, 101 kPa, x2 = 0) was 0.248 ± 0.011 mPa·s.
